Reference: US8987194B2, “Mutant Nisin ser 29 derivatives and the use thereof” (priority 2009, dated 2015)
Like-named read-outs stand apart in the source and are kept apart here. Where no end group is shown, it is not given here.

How the values were obtained:
[1] = literature reports; cited from earlier work
[2] = test system: L. lactis HP; test: Agarose-based diffusion assay of Nisin A S29 supernatants; assay type: cell-based, L. lactis spp cremoris; conditions: for Measurement of inhibitory zone, Average a + b + c: average of three replicates; for Measurement of inhibitory zone, L. lactis HP (a): replicate a; for Measurement of inhibitory zone, L. lactis HP (b): replicate b; for Measurement of inhibitory zone, L. lactis HP (c): replicate c
Description: The Nisin A S29 derivatives were retested using this assay (See FIG. 1).
The modified agarose-based assay was performed against 2 indicator strains, L. lactis spp cremoris HP (Table. 6) and Listeria monocytogenes LO28 (Table. 7).

[3] = test system: S. aureus RF122; test: Deferred antagonism assay (agar overlay); assay type: cell-based, Staphylococcus aureus; conditions: in Table 2 a listed strain = enhanced
Description: (§1) Deferred antagonism assays were performed by replicating strains on GM17 agar plates and allowing them to grow overnight before overlaying with either GM17/BHI/TSB-YE/MH agar (0.75% w/v agar) seeded with the appropriate indicator strain. For higher throughput screening of the S29X bank, deferred antagonism assays were performed by replicating strains using a 96 pin replicator (Boekel) or spotting 5 μl of a fresh overnight culture on GM17 agar plates and allowing them to grow overnight. Following overnight growth the strains were subjected to UV radiation for 30 minutes prior to overlaying with either GM17/BHI/TS/MH agar (0.75% w/v agar) seeded with the appropriate indicator

[4] = test system: Gram-positive pathogens including Listeria monocytogenes and/or Staphylococcus aureus; conditions: cited from earlier work
[5] = test system: penicillin-susceptible strain of Strep. pneumoniae; conditions: cited from earlier work
[6] = test system: gram-negative; conditions: introduction of positively charged residues; cited from earlier work
[7] = test system: pore formation; conditions: cited from earlier work
[8] = test system: L. lactis HP; test: Deferred antagonism assay (agar overlay); assay type: cell-based, Lactococcus lactis spp cremoris; conditions: in Table 2 a listed strain = enhanced
Description: as §1

Row | Substance | Measurement of inhibitory zone, Average a + b + c [2] [mm] | Measurement of inhibitory zone, L. lactis HP (a) [2] [mm] | Measurement of inhibitory zone, L. lactis HP (b) [2] [mm] | Measurement of inhibitory zone, L. lactis HP (c) [2] [mm] | further results
1 | N20F: aromatic residue-containing form of Nisin, literature (ITSISLCTPGCKTGALMGCFMKTATCHCSIHVSK; UniProt P13068 24-57, looked up, variant N20F) | – | – | – | – | antimicrobial activity of bioengineered derivative relative to Nisin [1]: reduced antimicrobial activity
2 | Nisin A S29H: Nisin A derivative with H at position 29 (ITSISLCTPGCKTGALMGCNMKTATCHCHIHVSK; cysteine pairing not given here; also: lantibiotic nisin-A post-translational modifications, not placed; UniProt P13068 24-57, looked up, variant S29H) | 10.93 | 11.2 | 10.7 | 10.9 | –
3 | Nisin Z | – | – | – | – | bioactivity compared to wild type (natural) Nisin variant [3]: Nisin A<Nisin Z
4 | N20P: Nisin hinge region derivative (Field et al., 2008) (ITSISLCTPGCKTGALMGCPMKTATCHCSIHVSK; cysteine pairing not given here; also: lantibiotic nisin-A post-translational modifications, not placed; UniProt P13068 24-57, looked up, variant N20P) | – | – | – | – | bioactivity and specific activity against Gram-positive pathogens [4]: enhanced bioactivity and specific activity
5 | Nisin A S29I: Nisin A derivative with I at position 29 (ITSISLCTPGCKTGALMGCNMKTATCHCIIHVSK; cysteine pairing not given here; also: lantibiotic nisin-A post-translational modifications, not placed; UniProt P13068 24-57, looked up, variant S29I) | 9.9 | 9.2 | 11.3 | 9.2 | –
6 | I30W: aromatic residue-containing form of Nisin, literature (ITSISLCTPGCKTGALMGCNMKTATCHCSWHVSK; UniProt P13068 24-57, looked up, variant I30W) | – | – | – | – | antimicrobial activity of bioengineered derivative relative to Nisin [1]: reduced antimicrobial activity
7 | Nisin | – | – | – | – | minimum inhibitory concentration (MIC) ([5]; before serial exposure to Nisin (1 mg/L)): 0.4 µg/mL; minimum inhibitory concentration (MIC) ([5]; stable Nisin-resistant mutants after serial exposure to Nisin (1 mg/L)): 6.4 µg/mL
8 | I1W: aromatic residue-containing form of Nisin, literature (WTSISLCTPGCKTGALMGCNMKTATCHCSIHVSK; UniProt P13068 24-57, looked up, variant I1W) | – | – | – | – | antimicrobial activity of bioengineered derivative relative to Nisin [1]: reduced antimicrobial activity
9 | K22S: Nisin hinge region derivative (Field et al., 2008) (ITSISLCTPGCKTGALMGCNMSTATCHCSIHVSK; cysteine pairing not given here; also: lantibiotic nisin-A post-translational modifications, not placed; UniProt P13068 24-57, looked up, variant K22S) | – | – | – | – | bioactivity and specific activity against Gram-positive pathogens [4]: enhanced bioactivity and specific activity
10 | M21K (ITSISLCTPGCKTGALMGCNKKTATCHCSIHVSK; UniProt P13068 24-57, looked up, variant M21K) | – | – | – | – | outcome with respect to anti-gram-negative activity [6]: more beneficial outcome
11 | M21E (ITSISLCTPGCKTGALMGCNEKTATCHCSIHVSK; UniProt P13068 24-57, looked up, variant M21E) | – | – | – | – | antimicrobial activity of bioengineered derivative relative to Nisin [1]: detrimental impact
12 | N20P/M21P: Nisin peptide with proline incorporation, literature (ITSISLCTPGCKTGALMGCPPKTATCHCSIHVSK; cysteine pairing not given here; also: lantibiotic nisin-A post-translational modifications, not placed; UniProt P13068 24-57, looked up, variant N20P M21P) | – | – | – | – | pore formation [7]: incapable of pore formation
13 | Nisin F | – | – | – | – | bioactivity compared to wild type (natural) Nisin variant [8]: Nisin A<Nisin F
14 | Nisin A S29Q: Nisin A derivative with Q at position 29 (ITSISLCTPGCKTGALMGCNMKTATCHCQIHVSK; cysteine pairing not given here; also: lantibiotic nisin-A post-translational modifications, not placed; UniProt P13068 24-57, looked up, variant S29Q) | 15.30 | 15.3 | 15.2 | 15.4 | –
15 | Nisin A S29M: Nisin A derivative with M at position 29 (ITSISLCTPGCKTGALMGCNMKTATCHCMIHVSK; cysteine pairing not given here; also: lantibiotic nisin-A post-translational modifications, not placed; UniProt P13068 24-57, looked up, variant S29M) | 13.56 | 13.2 | 14.5 | 13.0 | –
16 | Nisin A S29L: Nisin A derivative with L at position 29 (ITSISLCTPGCKTGALMGCNMKTATCHCLIHVSK; cysteine pairing not given here; also: lantibiotic nisin-A post-translational modifications, not placed; UniProt P13068 24-57, looked up, variant S29L) | 12.76 | 12.6 | 13.5 | 12.2 | –
17 | K22E (ITSISLCTPGCKTGALMGCNMETATCHCSIHVSK; UniProt P13068 24-57, looked up, variant K22E) | – | – | – | – | antimicrobial activity of bioengineered derivative relative to Nisin [1]: detrimental impact
18 | Nisin A S29F: Nisin A derivative with F at position 29 (ITSISLCTPGCKTGALMGCNMKTATCHCFIHVSK; cysteine pairing not given here; also: lantibiotic nisin-A post-translational modifications, not placed; UniProt P13068 24-57, looked up, variant S29F) | 11.0 | 10.6 | 12.2 | 10.2 | –
